Measurements reported in patent publication US7501238B2, “Skin substitutes for irritancy testing” (priority 2001, dated 2009).
Where two headings read alike, the source gives them in different places.

What was measured:
[1] = test system: NIKS organotypic cultures; assay: MTS cell viability of irritant-treated NIKS organotypic cultures; assay type: cell-based, human; conditions: 0.5% SDS, 24 hr
Description: (§1) Solutions of SDS (0.1%, 0.2%, and 0.5%) were topically applied to air-exposed NIKS organotypic cultures and incubated for 24 hr at 37° C. After 24 hr, the media underneath the cultures was assayed for IL-1α protein using a Quantikine IL-1α ELISA kit (R&D Systems, Minneapolis, Minn.) and cultures were incubated with MTS reagent (Promega Corp., Madison, Wis.) to determine cell viability. Media from untreated cultures contained 25 pg/ml IL-1α, whereas the concentration of IL-1α in cultures treated with 0.1%, 0.2% or 0.5% SDS was 290, 375 and 275 pg/ml respectively.
These values correspond well with published IL-1α responses in SDS-exposed skin equivalents (Perkins et al, Toxicological Sciences, 48:218 [1999]).

[2] = test system: NIKS organotypic cultures; assay: IL-1α secretion by NIKS organotypic cultures after topical irritant (ELISA); assay type: cell-based, human; conditions: 24 hr at 37° C.
Description: as §1

[3] = test system: skin equivalents; conditions: irritant-treated skin equivalents; 0.2% SDS, 0.005% calcipotriol, 0.025% trans-retinoic acid; cited from earlier work
[4] = test system: in vitro skin equivalent cultures; conditions: substance added to in vitro cultures, cited from earlier work
[5] = test system: IL-8 promoter sequences between −1472 and +19 in tracheobronchial epithelial cells; conditions: cited from earlier work

| Compound | expression and secretion of the pro-inflammatory cytokines IL-1α and IL-8 [3] | Lipid Composition [4] | further results |
| --- | --- | --- | --- |
| CCCCCCCCCCCCOS(=O)(=O)[O-].[Na+] [SDS] | induce expression and secretion | – | cell viability (MTS assay) [1]: decreased cell viability; concentration of IL-1α in media ([2]; 0.1% SDS applied topically): 290 pg/mL; concentration of IL-1α in media ([2]; 0.2% SDS applied topically): 375 pg/mL; concentration of IL-1α in media ([2]; 0.5% SDS applied topically): 275 pg/mL |
| O=C1O[C@H]([C@@H](O)CO)C(O)=C1O [Vitamin C] | – | Major | Lipid Composition ([4]; listed as vitamin C): improved the lipid profile |
| C=C1/C(=C\C=C2/CCC[C@]3(C)[C@@H]([C@H](C)/C=C/[C@@H](O)C4CC4)CC[C@@H]23)C[C@@H](O)C[C@@H]1O [calcipotriol] | induce expression and secretion | – | – |
| CC1=C(/C=C/C(C)=C/C=C/C(C)=C/C(=O)O)C(C)(C)CCC1 [trans-retinoic acid] | induce expression and secretion | – | induction of reporter gene containing IL-8 promoter sequences [5]: induced |
| EGF: epidermal growth factor (NSDSECPLSHDGYCLHDGVCMYIEALDKYACNCVVGYIGERCQYRDLKWWELR; Epidermal growth factor; UniProt P01133 971-1023, looked up) | – | High triglycerides | – |
| Vitamin E | – | No effect | – |
